# Measured values from ChEMBL document CHEMBL5096175, “An insight into the medicinal attributes of berberine derivatives: A review” (Bioorg Med Chem, 2021).
# Key:
# LS174T = assay: Antiproliferative activity against human LS174T cells assessed as inhibition of cell proliferation incubated for 48 hrs by MTT assay; format: functional, cell-based
# MKN-28 = assay: Antiproliferative activity against human MKN-28 cells assessed as inhibition of cell proliferation incubated for 48 hrs by MTT assay; format: functional, cell-based; conditions: MKN-28, 48 h
# HCT-8 [1] = assay: Antiproliferative activity against human HCT-8 cells assessed as inhibition of cell proliferation incubated for 48 hrs by MTT assay; format: functional, cell-based; conditions: HCT-8, 48 h
# CCRF S-180 = assay: Antiproliferative activity against mouse CCRF S-180 cells assessed as inhibition of cell proliferation incubated for 48 hrs by MTT assay; format: functional, cell-based; conditions: CCRF S-180, 48 h
# SGC-7901 = assay: Antiproliferative activity against human SGC-7901 cells assessed as inhibition of cell proliferation incubated for 48 hrs by MTT assay; format: functional, cell-based; conditions: SGC-7901, 48 h
# ECa-109 cell line = assay: Antiproliferative activity against human Eca-109 cells assessed as inhibition of cell proliferation incubated for 48 hrs by MTT assay; format: functional, cell-based; conditions: ECa-109, 48 h
# SW-620 = assay: Antiproliferative activity against human SW620 cells assessed as inhibition of cell proliferation incubated for 48 hrs by MTT assay; format: functional, cell-based; conditions: SW-620, 48 h
# HCT-116 = assay: Antiproliferative activity against human HCT-116 cells assessed as inhibition of cell proliferation incubated for 48 hrs by MTT assay; format: functional, cell-based; conditions: HCT-116, 48 h
# Acetylcholinesterase = Acetylcholinesterase (Homo sapiens, UniProt P22303); assay: Inhibition of acetylcholinesterase (unknown origin) using acetylthiocholine iodide as substrate incubated for 10 mins by Ellman's colorimetric method
# [2] = molecular target: Amine oxidase [flavin-containing] B (Homo sapiens, UniProt P27338); assay: Inhibition of human MAO-B preincubated for 30 mins followed by substrate addition and measured for 10 to 40 mins by fluorescence based assay
# HeLa [3] = assay: Antiproliferative activity against human HeLa cells assessed as inhibition of cell growth incubated for 72 hrs by MTT assay; format: functional, cell-based
# Bel-7402 = assay: Antiproliferative activity against human Bel-7402 cells assessed as inhibition of cell growth incubated for 72 hrs by MTT assay; format: functional, cell-based; conditions: Bel-7402, 72 h
# HCT-8 [4] = assay: Antiproliferative activity against human HCT-8 cells assessed as inhibition of cell growth incubated for 72 hrs by MTT assay; format: functional, cell-based; conditions: HCT-8, 72 h
# A549 = assay: Antiproliferative activity against human A549 cells assessed as inhibition of cell growth incubated for 72 hrs by MTT assay; format: functional, cell-based; conditions: A549, 72 h
# HEK-293T = assay: Antiinflammatory activity against HEK-293T cells assessed as inhibition of TNF-alpha induced NF-kappaB activation at 5 uM preincubated for 2 hrs followed by TNFalpha stimulation for 6 hrs by dual-luciferase reporter assay relative to control; format: functional; conditions: Homo sapiens, time 8 hrs
# Ca-Ski = assay: Anticancer activity against human Ca-Ski cells assessed as inhibition of cell growth by Sulforhodamine B colorimetric assay; format: functional, cell-based
# HeLa [5] = assay: Cytotoxicity against human HeLa cells assessed as inhibition of cell growth by Sulforhodamine B colorimetric assay; format: functional, cell-based
# [6] = Inhibition of hypoxia induced HIF-1 transcriptional activity in human T47D cells incubated for 1 hr followed by exposure to hypoxic condition for 20 hrs by renilla and HRE-luciferase based dual-luciferase reporter assay; format: cell-based
# MCF7 = assay: Antiproliferative activity against human MCF7 cells assessed as inhibition of cell growth incubated for 72 hrs by MTT assay; format: functional, cell-based; conditions: MCF7, 72 h
# [7] = Antioxidant activity assessed as DPPH radical scavenging activity measured after 25 mins by UV visible spectrophotometeric analysis; format: functional
# [8] = Antioxidant activity assessed as ABTS radical scavenging activity incubated for 10 mins by UV spectrophotometeric analysis; format: functional
# Candida parapsilosis = assay: Antifungal activity against Candida parapsilosis ATCC 22019 assessed as inhibition of fungal growth incubated for 24 hrs; format: functional; conditions: Lodderomyces parapsilosis
# Candida albicans = assay: Antifungal activity against Candida albicans ATCC 90023 assessed as inhibition of fungal growth incubated for 24 hrs; format: functional
# Escherichia coli = assay: Antibacterial activity against Escherichia coli CICC 10389 assessed as inhibition of bacterial growth incubated for 24 hrs by broth microdilution method; format: functional
# Clostridium perfringens = assay: Antibacterial activity against Clostridium perfringens CICC 22949 assessed as inhibition of bacterial growth incubated for 24 hrs by broth microdilution method; format: functional
# Staphylococcus aureus [9] = assay: Antibacterial activity against Staphylococcus aureus CICC 23656 assessed as inhibition of bacterial growth incubated for 24 hrs by broth microdilution method; format: functional
# Pseudomonas aeruginosa = assay: Antibacterial activity against Pseudomonas aeruginosa CICC 10419 assessed as inhibition of bacterial growth incubated for 24 hrs by broth microdilution method; format: functional
# Salmonella enteritidis = assay: Antibacterial activity against Salmonella enteritidis CICC 24119 assessed as inhibition of bacterial growth incubated for 24 hrs by broth microdilution method; format: functional, Salmonella enterica subsp. enterica serovar Enteritidis; conditions: Salmonella enterica
# Shigella dysenteriae = assay: Antibacterial activity against Shigella dysenteriae CICC 23829 assessed as inhibition of bacterial growth incubated for 24 hrs by broth microdilution method; format: functional
# Streptococcus pyogenes = assay: Antibacterial activity against Streptococcus pyogenes CICC 10356 assessed as inhibition of bacterial growth incubated for 24 hrs by broth microdilution method; format: functional
# Staphylococcus aureus [10] = assay: Antibacterial activity against methicillin-resistant Staphylococcus aureus ATCC 700699 assessed as inhibition of bacterial growth incubated for 24 hrs by broth microdilution method; format: functional
# [11] = Antioxidant activity assessed as DPPH radical scavenging potential measured for 30 mins optical density based analysis; format: functional
# [12] = Antioxidant activity assessed as ABTS radical cation scavenging activity incubated for 10 mins under dark condition; format: functional
# Acetylcholinesterase, sequence (P22303 whole entry): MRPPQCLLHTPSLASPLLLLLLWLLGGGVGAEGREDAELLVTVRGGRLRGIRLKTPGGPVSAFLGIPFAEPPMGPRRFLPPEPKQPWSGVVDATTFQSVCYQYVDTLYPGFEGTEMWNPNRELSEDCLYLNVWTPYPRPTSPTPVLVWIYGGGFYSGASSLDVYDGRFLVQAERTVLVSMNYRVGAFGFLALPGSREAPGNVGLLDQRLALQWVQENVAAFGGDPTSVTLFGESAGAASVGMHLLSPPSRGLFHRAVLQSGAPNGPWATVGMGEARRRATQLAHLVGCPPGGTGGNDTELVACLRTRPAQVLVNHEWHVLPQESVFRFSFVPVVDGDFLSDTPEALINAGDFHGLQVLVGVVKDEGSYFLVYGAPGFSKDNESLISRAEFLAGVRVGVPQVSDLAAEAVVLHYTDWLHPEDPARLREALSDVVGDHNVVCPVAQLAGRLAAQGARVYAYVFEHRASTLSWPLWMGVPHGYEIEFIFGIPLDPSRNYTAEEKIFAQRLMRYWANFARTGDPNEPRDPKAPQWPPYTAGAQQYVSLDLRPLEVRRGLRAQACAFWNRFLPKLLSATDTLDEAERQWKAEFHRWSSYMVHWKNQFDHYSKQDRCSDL
# Amine oxidase [flavin-containing] B, sequence (P27338 whole entry): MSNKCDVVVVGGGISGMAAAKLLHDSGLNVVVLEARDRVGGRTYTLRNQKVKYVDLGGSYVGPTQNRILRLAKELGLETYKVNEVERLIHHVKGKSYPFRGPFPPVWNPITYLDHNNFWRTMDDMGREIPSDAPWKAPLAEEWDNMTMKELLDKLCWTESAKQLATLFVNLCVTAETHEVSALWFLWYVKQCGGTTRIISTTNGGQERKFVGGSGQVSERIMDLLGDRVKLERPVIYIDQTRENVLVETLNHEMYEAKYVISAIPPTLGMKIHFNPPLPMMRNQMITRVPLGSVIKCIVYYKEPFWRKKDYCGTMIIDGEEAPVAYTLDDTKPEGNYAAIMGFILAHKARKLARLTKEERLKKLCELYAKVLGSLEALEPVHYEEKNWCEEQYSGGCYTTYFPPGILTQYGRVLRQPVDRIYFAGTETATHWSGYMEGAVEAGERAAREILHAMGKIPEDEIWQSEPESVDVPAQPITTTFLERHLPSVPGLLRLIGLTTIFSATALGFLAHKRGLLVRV
smiles,measurement,setting,value
COc1ccc2c(CC(=O)ON[C@@H](CSCc3ccccc3)C(=O)OCc3ccccc3)c3[n+](cc2c1OC)CCc1cc2c(cc1-3)OCO2,IC50,LS174T,15 µM
same,IC50,MKN-28,15 µM
same,IC50,HCT-8 [1],15 µM
same,IC50,CCRF S-180,15 µM
same,IC50,SGC-7901,15 µM
same,IC50,ECa-109 cell line,15 µM
same,IC50,SW-620,15 µM
same,IC50,HCT-116,15 µM
COc1ccc2cc3[n+](cc2c1OC)CCc1cc(O)c(O)cc1-3,IC50,Acetylcholinesterase,7.8 µM
same,IC50,[2],9.06 µM
CCCCCCN(CCCCCC)c1cc(OC)c(OC)c2c[n+]3c(cc12)-c1cc2c(cc1CC3)OCO2,IC50,HeLa [3],0.26 µM
same,IC50,Bel-7402,0.26 µM
same,IC50,HCT-8 [4],0.26 µM
same,IC50,A549,0.26 µM
CCCC(CCC)C(=O)Oc1c(OC)ccc2cc3[n+](cc12)CCc1cc2c(cc1-3)OCO2,inhibition at 5 µM,HEK-293T,> 90%
COc1ccc2cc3[n+](cc2c1OC(=O)C[C@@H]1C[C@H]2CC[C@@H]1C2)CCc1cc2c(cc1-3)OCO2,inhibition at 5 µM,HEK-293T,> 90%
COc1cc(CN2CCN(C(=O)c3ccco3)CC2)c2cc3[n+](cc2c1O)CCc1cc2c(cc1-3)OCO2,CC50,Ca-Ski,344 µM
same,IC50,Ca-Ski,6.11 µM
COc1cc(CN2CCN(c3cccc4ccccc34)CC2)c2cc3[n+](cc2c1O)CCc1cc2c(cc1-3)OCO2,CC50,HeLa [5],478 µM
same,IC50,HeLa [5],8.31 µM
COc1cc(-c2ccc(-c3ccccc3)cc2)c2cc3[n+](cc2c1OC)CCc1cc2c(cc1-3)OCO2,IC50,[6],0.74 µM
same,IC50,MCF7,0.98 µM
COc1ccc2cc3[n+](cc2c1OCCCCCn1ccc2ccccc21)CCc1cc2c(cc1-3)OCO2,IC50,[7],17.1 µM
same,IC50,[8],9.64 µM
CCCCCCOc1c(OC)cc(/C=C2\SC(=O)NC2=O)c2c1CN1CCc3cc4c(cc3C1C2)OCO4 (centres undefined),MIC,Candida parapsilosis,60 µM
same,MIC,Candida albicans,15 µM
COc1ccc2cc3[n+](cc2c1OC(=O)c1ccc(C(C)(C)C)cc1)CCc1cc2c(cc1-3)OCO2,inhibition at 5 µM,HEK-293T,> 90%
COc1ccc2cc3[n+](cc2c1OCc1ccc(C#N)cc1)CCc1cc2c(cc1-3)OCO2,MIC,Escherichia coli,1.77 µM
same,MIC,Clostridium perfringens,1.77 µM
same,MIC,Staphylococcus aureus [9],1.77 µM
same,MIC,Pseudomonas aeruginosa,1.77 µM
same,MIC,Salmonella enteritidis,1.77 µM
same,MIC,Shigella dysenteriae,1.77 µM
same,MIC,Streptococcus pyogenes,1.77 µM
same,MIC,Staphylococcus aureus [10],1.77 µM
COc1c(OC(=O)C23CC4CC(CC(C4)C2)C3)ccc2cc3[n+](cc12)CCc1cc2c(cc1-3)OCO2,inhibition at 5 µM,HEK-293T,> 90%
COc1ccc2cc3[n+](cc2c1OCc1ccc([N+](=O)[O-])cc1)CCc1cc2c(cc1-3)OCO2,MIC,Escherichia coli,1.71 µM
same,MIC,Clostridium perfringens,1.71 µM
same,MIC,Staphylococcus aureus [9],1.71 µM
same,MIC,Pseudomonas aeruginosa,1.71 µM
same,MIC,Salmonella enteritidis,1.71 µM
same,MIC,Shigella dysenteriae,1.71 µM
same,MIC,Streptococcus pyogenes,1.71 µM
same,MIC,Staphylococcus aureus [10],1.71 µM
COc1cc(CNc2nc3ccccc3s2)c2cc3[n+](cc2c1O)CCc1cc2c(cc1-3)OCO2,IC50,[11],25.4 µM
same,IC50,[12],8.48 µM
COc1ccc2cc3[n+](cc2c1OC)CCc1cc2c(cc1-3)OCO2 [BERBERINE CHLORIDE],IC50,LS174T,25 µM
same,IC50,MKN-28,25 µM
same,IC50,HCT-8 [1],25 µM
same,IC50,CCRF S-180,25 µM
same,IC50,SGC-7901,25 µM
same,IC50,ECa-109 cell line,25 µM
same,IC50,SW-620,25 µM
same,IC50,HCT-116,25 µM
